Measured values taken from US20230226227A1, “PROSTATE SPECIFIC MEMBRANE ANTIGEN (PSMA) LIGANDS AND USES THEREOF” (ADVANCED ACCELERATOR APPLICATIONS (ITALY) SRL, priority 2019, published 2023).
Where “and” joins values, the source holds several entries; their conditions need not be identical. Equal values may be shown once. Entries after “also recorded” stand apart in the source; their conditions may differ.

How the values were obtained:
[1] = Behavioral Irwin test after single intravenous administration; assay type: in vivo, rat
Method: The aim of this study was to evaluate the possible effects of ^175Lu-PSMA-R2, at doses of 0.2, 0.6 and 2.0 mg/kg, on general behavior parameters in the rat after intravenous administration, according to the study design in Table 2.
The following parameters were evaluated: mortality, body weight, clinical signs and Irwin test.
The Irwin test was performed at the following intervals after dosing: 5, 15, 30 minutes and 1, 2 and 24 hours.

[2] = Plasma protein binding by ultrafiltration, human plasma; assay type: in vitro ADME; settings: for fu (%) fraction unbound: human plasma
Method: (§1) Plasma protein binding of PSMA-R2 and ^175Lu-PSMA-R2 has been determined by ultrafiltration method, after incubation of the compounds in human, mouse, rat and minipig plasma at two different concentrations: 1 and 5 µg/mL.

[3] = Repeated dose (2 weeks) toxicity and toxicokinetic study in the minipig; assay type: in vivo, minipigs; settings: for Half-life: mean value per sex
Method: The tested doses are: 0.058, 0.175 and 0.583 mg/kg/day, that is about 14, 42 and 140 times the PSMA-R2 anticipated human dose.
Each group included 3 male and 3 female minipigs. Groups 1 and 4 included 2 additional animals per gender to be sacrificed after 2 weeks of recovery.
All animals were dosed intravenously once a day for 14 consecutive days.

[4] = Plasma protein binding by ultrafiltration, mouse plasma; assay type: in vitro ADME
Method: as §1

[5] = Single dose toxicity study in the rat; assay type: in vivo, Sprague Dawley (SD) rats
Method: This study aimed at assessing the toxicity of ^175Lu-PSMA-R2 right after acute intravenous injection of 2 or 4 mg/kg among Sprague Dawley (SD) rats.
Two groups of 30 animals (1:1 male:female ratio) were administered with 2 and 4 mg/kg, respectively. A control group of equal characteristics was treated with the vehicle (Table 5).
Signs of reaction to treatment at all doses were assessed at 30, 120 and 240 min p.i. as well as 24 h later. At Day 2, 10 rats per gender and per group were sacrificed. The remaining 5 animals/gender/group were observed daily over14 days.
Body weight was recorded on the day of treatment group allocation, Day 1 (day of injection), 8 and 15. Food consumption was measured on Day 2 and weekly thereafter. At the end of treatment, urine samples were collected for urinalysis. On Day 2 and 15, blood samples withdrawn at sacrifice were screened for clinical pathologies. After dissection, organs were weighted and tissues were treated for microscopic analyses (over 50 different tissues were analyzed).

[6] = Plasma protein binding by ultrafiltration, minipig plasma; assay type: in vitro ADME
Method: as §1

[7] = Repeated dose (2 weeks) toxicity and toxicokinetic study in the rat
Method: The purpose of this study was to investigate the toxicity of ^175Lu-PSMA-R2 in rats after daily intravenous administration for 2 weeks and recovery from any treatment related effects during a 2-week recovery period (main groups).
The tested doses were 0.13, 0.39 and 1.29 mg/kg/day, that is about 31, 93 and 310 times the PSMA-R2 anticipated human dose.
Each main treatment group consisted of 10 male and 10 female rats. There were additional 5 male and 5 females included to be sacrificed after 2 weeks of recovery in groups 1 and 4. Two satellite groups (low and mid- dose) for toxicokinetics had 9 male and 9 female animals and one group (high dose) included 12 male and 12 female animals. One additional group (control) comprised 3 male and 3 female animals.
In this study, the toxicity and the toxicokinetic profile of ^175Lu-PSMA-R2 were investigated in Sprague Dawley rats after daily intravenous administration for 2 weeks at the dosages of 0.13, 0.39 and 1.29 mg/kg/day.

[8] = tested on: Salmonella typhimurium TA1535, TA1537, TA98, TA100; assay: Bacterial mutation assay, Salmonella typhimurium; assay type: cell-based
Method: The test item ^175Lu-labelled PSMA-R2 solution was examined for the ability to induce gene mutations in tester strains of Salmonella typhimurium and Escherichia coli, as measured by reversion of auxotrophic strains to prototrophy. The five tester strains TA1535, TA1537, TA98, TA100 and WP2 uvrA were used. Experiments were performed both in the absence and presence of metabolic activation, using liver S9 fraction from rats pre-treated with phenobarbital and 5,6-benzoflavone.
The test item was used as a solution in sodium acetate buffer and all concentrations in this report are expressed in terms of active ingredient. The test item ^175Lu-labelled PSMA-R2 solution was assayed in the toxicity test at a maximum feasible concentration of 1000 µg/plate and at four lower concentrations spaced at approximately half-log intervals: 316, 100, 31.6 and 10.0 µg/plate.
On the basis of the results obtained in the preliminary toxicity test, in the Main Assay, using the plate incorporation method, the test item was assayed with all tester strains at the following dose levels: 1000, 500, 250, 125 and 62.5 µg/plate. […] Since a clear negative result was obtained, no further experiment was undertaken.

[9] = daily iv 0.058, 0.175, 0.583 mg/kg/day for 14 days

Q: Which Clinical signs ([1]; 6-day observation period) does the source give for `O=C(O)CCC(NC(=O)NC(CCCCN(Cc1ccc(Br)cc1)C(=O)CCCCCNC(=O)CN1CCN(CC(=O)O)CCN(CC(=O)O)CCN(CC(=O)O)CC1)C(=O)O)C(=O)O.[175Lu]` (centres unmarked) [^175Lu-PSMA-R2] here?
A: No clinical signs were observed

Q: And the Mortality ([1]; single iv 0.2, 0.6 and 2.0 mg/kg)?
A: No deaths occurred

Q: What about the “Effects on behavioral, neurologic or autonomic parameters (Irwin)” value ([1]; single iv 0.2, 0.6 and 2.0 mg/kg, up to 24 h post-dose) of the same molecule?
A: did not induce any effects; also recorded: No effects

Q: What about the “fu (%) fraction unbound” value ([2]; 1 µg/mL) of the same molecule?
A: 43.9± 5.1%

Q: And the “fu (%) fraction unbound” value ([2]; 5 µg/mL)?
A: 45.0 ± 9.6%

Q: And the “Plasma protein binding, assessment in words” value ([2]; human, plasma)?
A: non-highly bound

Q: What about the Half-life ([3]; Day 1, female minipigs) of the same molecule?
A: 37.8 min

Q: What about the Half-life ([3]; Day 1, male minipigs) of the same molecule?
A: 42.6 min

Q: And the “Accumulation after daily administration” value ([3]; Day 1 to Day 14)?
A: No relevant accumulation

Q: What about the “Clinical pathology, gross pathology, terminal body weight, absolute and relative organ weight” value ([3]; any dose) of the same molecule?
A: did not reveal notable or treatment-related changes

Q: And the Histopathology ([3]; any dose)?
A: no histopathology treatment-related modifications

Q: What about the “Body weights and food intake” value [3, 9] of the same molecule?
A: unaffected by the treatment

Q: What about the “Ophthalmoscopy and electrocardiographic examination” value [3, 9] of the same molecule?
A: No treatment-related abnormalities

Q: And the Physical examination [3, 9]?
A: did not show appreciable changes

Q: What about the NOAEL ([3]; daily iv for 2 weeks) of the same molecule?
A: 0.583 mg/kg/day and 0.58 mg/kg/day

Q: And the “Increase in systemic exposure (Cmax and AUC0-tlast) with dose” value ([3]; minipig, in vivo)?
A: approximately dose-proportional

Q: What about the “Plasma clearance, dose dependence” value ([3]; minipig, in vivo) of the same molecule?
A: dose-independent

Q: And the “Treatment-related effects in treated groups compared to controls” value ([3]; once a day for 2 weeks)?
A: No evidence of treatment-related effects

Q: What about the “fu (%) fraction unbound” value ([4]; 1 µg/mL) of the same molecule?
A: 71.1 ± 4.4%

Q: And the “fu (%) fraction unbound” value ([4]; 5 µg/mL)?
A: 71.0 ± 2.2%

Q: And the Mortality ([5]; high dose (4 mg/kg), 30 min after dosing, no cause of death established)?
A: One death

Q: And the “Clinical signs immediately after dosing” value ([5]; high dose group, dead animal and 5 other animals)?
A: Only decreased activity was noted

Q: And the Toxicity signs ([5]; single iv 2 and 4 mg/kg)?
A: did not induce toxicity signs; also recorded: No signs of toxicity observed

Q: What about the “fu (%) fraction unbound” value ([6]; 1 µg/mL) of the same molecule?
A: 41.1 ± 4.2%

Q: What about the “fu (%) fraction unbound” value ([6]; 5 µg/mL) of the same molecule?
A: 46.1 ± 12.5%

Q: What about the “Accumulation after daily administration” value ([7]; Day 1 to Day 14) of the same molecule?
A: No accumulation

Q: What about the Half-life ([7]; both sexes and all dose levels) of the same molecule?
A: 24 to 48 min

Q: And the “NOAEL (No Observed Adverse Effect Level)” value ([7]; daily iv for 2 weeks)?
A: 1.29 mg/kg/day

Q: And the “Toxic / treatment-related effects in treated groups compared to controls” value ([7]; daily iv for 2 weeks)?
A: No evidence of treatment-related effects

Q: And the “Bodyweight and food consumption” value ([7]; rat, in vivo)?
A: unaffected by treatment

Q: What about the “Clearance, dose dependence” value ([7]; rat, in vivo) of the same molecule?
A: dose-independent

Q: What about the Clinical pathology examination ([7]; rat, in vivo) of the same molecule?
A: No findings of toxicological relevance

Q: What about the Daily clinical observation ([7]; rat, in vivo) of the same molecule?
A: No signs of toxicological significance

Q: What about the “Dose proportionality of exposure” value ([7]; rat, in vivo) of the same molecule?
A: approximately dose proportional

Q: And the “NOAEL as multiple of the foreseen human dose” value ([7]; rat, in vivo)?
A: 310 times

Q: And the “Necropsy, organ weights or histopathological examination” value ([7]; rat, in vivo)?
A: No evidence of treatment-related effects

Q: What about the Ophthalmoscopy examination ([7]; rat, in vivo) of the same molecule?
A: No anomalies related to treatment

Q: And the “Toxic / treatment-related effects in treated groups compared to controls” value ([7]; rat, in vivo, iv)?
A: no toxic effects

Q: What about the “Toxicity and revertant numbers, preliminary toxicity test” value ([8]; 10.0-1000 µg/plate, absence or presence of S9) of the same molecule?
A: Neither toxicity, nor relevant increases in revertant numbers

Q: And the “Toxicity and revertant numbers, Main Assay (plate incorporation)” value ([8]; 62.5-1000 µg/plate, absence or presence of S9)?
A: Neither toxicity, nor relevant increases in revertant numbers

Q: What about the “Induction of reverse mutation (conclusion)” value ([8]; absence or presence of S9 metabolism) of the same molecule?
A: does not induce reverse mutation
